Measurements: US20250145589A1, “PYRIDINE DERIVATIVE AND USE THEREOF” (SICHUAN HUIYU PHARMACEUTICAL CO., LTD., priority 2021, published 2025)
Where two headings read alike, the source gives them in different places.

How the values were obtained:
PI3Kα = PI3Kα (Homo sapiens (Human), UniProt P42336); experiment: Inhibition of PI3Kα efficacy assay (ADP-Glo kinase assay); assay type: biochemical; conditions: read-out: PI3Kα inhibitory activity (IC50)
Method in brief: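 ADP-Glo luminescent detection of ADP from PI3Kα acting on PI substrate with ATP, 60 min at RT; compounds in 8-point five-fold serial dilution from 2 mM DMSO stock. IC50 from four-parameter variable-slope fit.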

PI3Kδ = PI3Kδ (Homo sapiens (Human), UniProt O00329); experiment: Inhibition of PI3Kδ efficacy assay (ADP-Glo kinase assay); assay type: biochemical; conditions: Table 2; read-out: PI3Kδ inhibitory activity (IC50)
PI3Kδ, sequence (O00329 whole entry): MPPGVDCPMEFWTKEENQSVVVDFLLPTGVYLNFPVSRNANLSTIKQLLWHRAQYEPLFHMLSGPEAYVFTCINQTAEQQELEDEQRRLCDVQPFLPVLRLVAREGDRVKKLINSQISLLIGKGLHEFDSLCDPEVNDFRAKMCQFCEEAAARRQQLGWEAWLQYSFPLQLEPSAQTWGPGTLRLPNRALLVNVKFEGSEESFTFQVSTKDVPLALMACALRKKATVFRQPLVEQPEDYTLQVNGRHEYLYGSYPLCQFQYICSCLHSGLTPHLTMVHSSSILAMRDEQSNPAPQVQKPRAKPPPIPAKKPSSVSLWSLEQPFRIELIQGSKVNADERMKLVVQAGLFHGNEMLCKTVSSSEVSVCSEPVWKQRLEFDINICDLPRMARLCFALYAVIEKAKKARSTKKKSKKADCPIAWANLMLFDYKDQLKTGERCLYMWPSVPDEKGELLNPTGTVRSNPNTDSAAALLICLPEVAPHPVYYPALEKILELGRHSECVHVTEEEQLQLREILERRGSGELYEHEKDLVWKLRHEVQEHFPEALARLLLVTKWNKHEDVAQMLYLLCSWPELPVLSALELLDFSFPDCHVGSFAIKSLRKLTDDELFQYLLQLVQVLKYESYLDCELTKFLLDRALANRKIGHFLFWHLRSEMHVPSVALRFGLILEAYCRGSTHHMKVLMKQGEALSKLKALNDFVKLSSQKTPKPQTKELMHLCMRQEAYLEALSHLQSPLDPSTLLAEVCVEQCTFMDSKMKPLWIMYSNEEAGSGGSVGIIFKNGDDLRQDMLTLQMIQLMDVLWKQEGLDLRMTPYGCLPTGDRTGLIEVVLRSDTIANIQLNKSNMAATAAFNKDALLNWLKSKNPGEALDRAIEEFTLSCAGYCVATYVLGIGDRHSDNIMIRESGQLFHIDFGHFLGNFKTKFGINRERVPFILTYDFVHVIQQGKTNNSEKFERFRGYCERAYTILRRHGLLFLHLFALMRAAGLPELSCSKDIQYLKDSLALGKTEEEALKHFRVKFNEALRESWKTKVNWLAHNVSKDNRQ
PI3Kδ, sequence (P27986 whole entry partner): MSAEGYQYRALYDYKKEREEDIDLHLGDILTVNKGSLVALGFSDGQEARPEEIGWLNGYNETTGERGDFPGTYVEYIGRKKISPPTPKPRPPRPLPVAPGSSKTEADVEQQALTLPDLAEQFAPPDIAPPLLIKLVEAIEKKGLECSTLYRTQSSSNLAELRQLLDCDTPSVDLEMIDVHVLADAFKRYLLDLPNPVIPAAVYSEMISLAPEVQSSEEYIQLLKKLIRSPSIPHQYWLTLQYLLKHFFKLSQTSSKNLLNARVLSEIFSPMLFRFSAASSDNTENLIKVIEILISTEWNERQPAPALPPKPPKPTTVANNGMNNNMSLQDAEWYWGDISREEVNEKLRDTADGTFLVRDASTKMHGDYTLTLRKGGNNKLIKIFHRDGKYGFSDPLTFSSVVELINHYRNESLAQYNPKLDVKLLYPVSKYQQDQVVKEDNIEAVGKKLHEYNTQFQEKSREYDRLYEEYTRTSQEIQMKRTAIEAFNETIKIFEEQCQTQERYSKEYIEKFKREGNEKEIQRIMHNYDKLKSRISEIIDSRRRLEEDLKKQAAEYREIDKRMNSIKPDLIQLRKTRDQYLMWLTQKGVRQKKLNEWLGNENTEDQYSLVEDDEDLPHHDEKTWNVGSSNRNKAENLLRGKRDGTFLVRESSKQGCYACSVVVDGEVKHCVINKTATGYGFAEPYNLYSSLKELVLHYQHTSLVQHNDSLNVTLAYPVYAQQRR
Method in brief: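 Luminescent ADP-Glo readout of PI3Kδ: after a 60 min RT reaction with PI/ATP substrate, ATP depletion (40 min) and ADP detection (40 min) steps followed. Compounds tested as eight five-fold serial dilutions; inhibition rates fitted to log(inhibitor) vs. response, variable slope, for IC50.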

[1] = test system: NCI-H358 cells (KRAS G12C mutant); experiment: NCI-H358 cell proliferation inhibition (CellTiter-Glo); assay type: cell-based; conditions: H358 cells (G12C mutation), 3 days, Table 6, read-out: NCI-H358 (IC50)
[2] = test system: MIA PaCa-2 cells (KRAS G12C mutant); experiment: MIA PaCa-2 cell anti-proliferation (CellTiter-Glo); assay type: cell-based; conditions: Homo sapiens, 72 h; MIA Paca-2 cells, 3 days, Table 7; read-out: MIA PaCa-2 (IC50)
Description: The number of viable cells was determined using the CellTiter-Glo® assay to evaluate the anti-proliferation efficacy of compounds. […] The compounds were serially diluted 4-fold in DMSO to obtain 9 concentrations, and then further diluted with DMEM (10% FBS+2.5% horse serum+1% penicillin/streptomycin) cell culture medium to obtain the working solutions (2×), 15 μL of each working solution was added to the cell culture supernatant in each well, and the cells were further incubated for 3 days at 37° C. with 5% CO2. The plate was then equilibrated with CellTiter-Glo® reagent at room temperature (25° C.) for 30 minutes. After adding 25 μL of CellTiter-Glo®, reagent, the cells were thoroughly mixed with the CellTiter-Glo® reagent using a microplate shaker for 2 minutes, and then incubated at room temperature for at least 30 minutes. […] Data were analyzed using GraphPad Prism for IC50 values (Note: The negative control refers to the group without inhibitor).

PI3Kα, sequence (P42336 whole entry): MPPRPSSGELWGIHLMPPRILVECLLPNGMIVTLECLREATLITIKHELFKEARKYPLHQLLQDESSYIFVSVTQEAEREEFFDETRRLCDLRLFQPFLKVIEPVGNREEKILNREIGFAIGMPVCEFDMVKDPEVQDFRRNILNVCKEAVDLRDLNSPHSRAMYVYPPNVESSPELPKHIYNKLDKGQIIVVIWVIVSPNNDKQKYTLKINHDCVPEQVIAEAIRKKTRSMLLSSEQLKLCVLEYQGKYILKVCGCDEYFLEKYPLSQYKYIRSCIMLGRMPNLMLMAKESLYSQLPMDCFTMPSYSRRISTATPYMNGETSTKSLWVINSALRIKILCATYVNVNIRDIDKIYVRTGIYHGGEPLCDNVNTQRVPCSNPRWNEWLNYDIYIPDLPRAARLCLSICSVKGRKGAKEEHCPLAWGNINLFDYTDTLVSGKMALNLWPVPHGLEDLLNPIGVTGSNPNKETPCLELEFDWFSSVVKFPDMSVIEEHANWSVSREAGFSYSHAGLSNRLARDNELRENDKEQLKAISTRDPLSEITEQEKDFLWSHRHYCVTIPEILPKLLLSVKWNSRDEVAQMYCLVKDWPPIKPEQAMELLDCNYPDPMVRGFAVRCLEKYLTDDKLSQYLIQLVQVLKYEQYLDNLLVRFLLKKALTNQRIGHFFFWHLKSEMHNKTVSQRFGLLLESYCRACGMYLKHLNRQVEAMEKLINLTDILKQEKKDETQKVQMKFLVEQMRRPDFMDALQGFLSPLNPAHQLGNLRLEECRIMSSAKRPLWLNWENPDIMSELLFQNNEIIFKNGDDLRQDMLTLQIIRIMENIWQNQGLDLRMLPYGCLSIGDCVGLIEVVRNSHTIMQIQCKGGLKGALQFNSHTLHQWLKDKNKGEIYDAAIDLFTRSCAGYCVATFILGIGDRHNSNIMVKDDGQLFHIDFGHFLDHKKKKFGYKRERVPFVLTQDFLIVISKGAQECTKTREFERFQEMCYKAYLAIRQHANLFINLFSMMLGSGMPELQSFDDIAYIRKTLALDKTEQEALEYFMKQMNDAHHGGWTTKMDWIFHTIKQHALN
PI3Kα, sequence (P27986 whole entry partner): as the sequence (P27986 whole entry partner) above

How did the IC50 (PI3Kα; Table 2) turn out when `COc1ncc(-c2ccc3ncnc(N4CCN(C(=O)C5=CC(=O)CCC5)CC4)c3c2)cc1NS(=O)(=O)c1ccc(Cl)s1` [Example 73, 5-chloro-N-(2-methoxy-5-(4-(4-(3-oxocyclohexane-1-en-1-carbonyl)piperazin-1-yl)quinazoline-6-yl)pyridin-3-yl)thiophene-2-sulfonamide] was run?
Its IC50 is 2.5 nM.

And the IC50 (PI3Kδ)?
The IC50 was 16.5 nM.

What about the IC50 ([1]; Homo sapiens, NCI-H358, 72 h) of the same compound?
Its IC50 is 34.3 nM.

Which IC50 (PI3Kα; Table 2) does the source give for `COc1ncc(-c2ccc3ncnc(N4CCN(C(=O)C5=CC(=O)CC5)CC4)c3c2)cc1NS(=O)(=O)c1ccc(F)cc1F` [Example 74, 2,4-difluoro-N-(2-methoxy-5-(4-(4-(3-oxocyclopent-1-ene-1-carbonyl)piperazin-1-yl)quinazolin-6-yl)pyridin-3-yl)benzenesulfonamide] here?
The IC50 was 1.8 nM.

What about the IC50 (PI3Kδ) of the same compound?
The IC50 was 23.2 nM.

And the IC50 ([1]; Homo sapiens, NCI-H358, 72 h)?
The IC50 was 26.5 nM.

For `COc1ncc(-c2ccc3ncnc(N4CCN(C(=O)/C=C/S(C)(=O)=O)CC4)c3c2)cc1NS(=O)(=O)c1ccc(F)cc1F` [Example 75, (E)-2,4-difluoro-N-(2-methoxy-5-(4-(4-(3-(methylsulfonyl)acryloyl)piperazin-1-yl)quinazolin-6-yl)pyridin-3-yl)benzenesulfonamide], which IC50 (PI3Kα; Table 2) is on record?
The IC50 was 0.78 nM.

And the IC50 (PI3Kδ)?
Its IC50 is 31.2 nM.

And the IC50 ([1]; Homo sapiens, NCI-H358, 72 h)?
Its IC50 is 285 nM.

With `COc1ncc(-c2ccc3ncnc(N4CCN(C(=O)/C=C/P(C)(C)=O)CC4)c3c2)cc1NS(=O)(=O)c1ccc(F)cc1F` [Example 76, (E)-N-(5-(4-(4-(3-(dimethylphosphoryl)acryloyl)piperazin-1-yl)quinazolin-6-yl)-2-methoxypyridin-3-yl)-2,4-difluorobenzenesulfonamide] as the compound, how does the IC50 (PI3Kα; Table 2) read?
The IC50 was 7.5 nM.

And the IC50 (PI3Kδ)?
Its IC50 is 25.3 nM.

What about the IC50 ([1]; Homo sapiens, NCI-H358, 72 h) of the same compound?
The IC50 was 3420 nM.

`CCc1ncc(-c2ccc3ncnc(N4CCN(C(=O)/C=C/C(C)=O)CC4)c3c2)cc1NS(=O)(=O)c1ccc(F)cc1F` [Example 83, (E)-N-(2-ethyl-5-(4-(4-(4-oxopent-2-enoyl)piperazin-1-yl)quinazolin-6-yl)pyridin-3-yl)-2,4-difluorobenzenesulfonamide] was tested. Which IC50 (PI3Kα; Table 2) did it give?
The IC50 was 6.2 nM.

And the IC50 (PI3Kδ)?
Its IC50 is 17.6 nM.

What about the IC50 ([1]; Homo sapiens, NCI-H358, 72 h) of the same compound?
Its IC50 is 459 nM.

Which results are given for `CC(=O)/C=C/C(=O)N1CCN(c2ncnc3ccc(-c4cnc(OC5CCCC5)c(NS(=O)(=O)c5ccc(F)cc5F)c4)cc23)CC1` [Example 107, (E)-N-(2-(cyclopentyloxy)-5-(4-(4-(4-oxopent-2-enoyl)piperazin-1-yl)quinazolin-6-yl)pyridin-3-yl)-2,4-difluorobenzenesulfonamide]?
IC50 (PI3Kα; Table 2): 126 nM; IC50 (PI3Kδ): 794 nM; IC50 ([1]; Homo sapiens, NCI-H358, 72 h): 405 nM

With `COc1ncc(-c2ccc3ncnc(N4CCN(C(=O)/C=C/C(C)=O)[C@@H](CC#N)C4)c3c2)cc1NS(=O)(=O)c1ccc(F)cc1F` [Example 112, (S,E)-N-(5-(4-(3-(cyanomethyl)-4-(4-oxopent-2-enoyl)piperazin-1-yl)quinazolin-6-yl)-2-methoxypyridin-3-yl)-2,4-difluorobenzenesulfonamide] as the compound, how does the IC50 (PI3Kα; Table 2) read?
The IC50 was 5 nM.

And the IC50 (PI3Kδ)?
Its IC50 is 23.9 nM.

What about the IC50 ([1]; Homo sapiens, NCI-H358, 72 h) of the same compound?
Its IC50 is 72.2 nM.

How did the IC50 (PI3Kα; Table 2) turn out when `C=C(F)C(=O)N1CCN(c2ncnc3ccc(-c4cnc(OC)c(NS(=O)(=O)c5ccc(F)cc5F)c4)cc23)C[C@@H]1CC#N` [Example 113, (S)-N-(5-(4-(3-(cyanomethyl)-4-(2-fluoroacryloyl)piperazin-1-yl)quinazolin-6-yl)-2-methoxypyridin-3-yl)-2,4-difluorobenzenesulfonamide] was run?
The IC50 was 2.9 nM.

And the IC50 (PI3Kδ)?
Its IC50 is 11.5 nM.

And the IC50 ([1]; Homo sapiens, NCI-H358, 72 h)?
The IC50 was 58 nM.

What does the source list for `C=CC(=O)N1CCN(c2ncnc3ccc(-c4cnc(OC)c(NS(=O)(=O)c5ccc(F)cc5F)c4)cc23)C[C@@H]1CC#N` [Example 114, (S)-N-(5-(4-(4-acryloyl-3-(cyanomethyl)piperazin-1-yl)quinazolin-6-yl)-2-methoxypyridin-3-yl)-2,4-difluorobenzenesulfonamide]?
IC50 (PI3Kα; Table 2): 1.4 nM; IC50 (PI3Kδ): 28.5 nM; IC50 ([1]; Homo sapiens, NCI-H358, 72 h): 34.6 nM

What does the source list for `COc1ncc(-c2ccc3ncnc(N4CCN(C(=O)/C=C/C(C)=O)CC4)c3c2)cc1NS(=O)(=O)c1ccc(F)cn1` [Example 118, (E)-5-fluoro-N-(2-methoxy-5-(4-(4-(4-oxopent-2-enoyl)piperazin-1-yl)quinazolin-6-yl)pyridin-3-yl)pyridine-2-sulfonamide]?
IC50 (PI3Kα; Table 2): 1.9 nM; IC50 (PI3Kδ): 19.7 nM; IC50 ([1]; Homo sapiens, NCI-H358, 72 h): 79.2 nM

With `C=CC(=O)N1CCN(c2ncnc3ccc(-c4cnc(OC)c(NS(=O)(=O)c5ccc(F)cn5)c4)cc23)CC1` [Example 119, N-(5-(4-(4-acryloylpiperazin-1-yl)quinazolin-6-yl)-2-methoxypyridin-3-yl)-5-fluoropyridine-2-sulfonamide] as the compound, how does the IC50 (PI3Kα; Table 2) read?
The IC50 was 2.8 nM.

And the IC50 (PI3Kδ)?
The IC50 was 11.8 nM.

And the IC50 ([1]; Homo sapiens, NCI-H358, 72 h)?
The IC50 was 67.9 nM.

Which results are given for `C=C(F)C(=O)N1CCN(c2ncnc3ccc(-c4cnc(OC)c(NS(=O)(=O)c5ccc(F)cn5)c4)cc23)CC1` [Example 120, 5-fluoro-N-(5-(4-(4-(2-fluoroacryloyl)piperazin-1-yl)quinazolin-6-yl)-2-methoxypyridin-3-yl)pyridine-2-sulfonamide]?
IC50 (PI3Kα; Table 2): 3 nM; IC50 (PI3Kδ): 11.5 nM; IC50 ([1]; Homo sapiens, NCI-H358, 72 h): 94.9 nM

`C=C1CCN(C2CN(c3ncnc4ccc(-c5cnc(OC)c(NS(=O)(=O)c6ccc(F)cc6F)c5)cc34)C2)C1=O` [Example 125] was tested. Which IC50 (PI3Kα; Table 2) did it give?
The IC50 was 5 nM.

What about the IC50 (PI3Kδ) of the same compound?
Its IC50 is 17 nM.

And the IC50 [1]?
The IC50 was 97.2 nM.

`COc1ncc(-c2ccc3ncnc(N4CCN(C(=O)C5OC5C(C)=O)CC4)c3c2)cc1NS(=O)(=O)c1ccc(F)cc1F` (stereo not shown) [Example 127, N-(5-(4-(4-(3-acetyloxirane-2-carbonyl)piperazin-1-yl)quinazolin-6-yl)-2-methoxypyridin-3-yl)-2,4-difluorobenzenesulfonamide] was tested. Which IC50 (PI3Kα; Table 2) did it give?
The IC50 was 1.9 nM.

And the IC50 (PI3Kδ)?
Its IC50 is 31.7 nM.

And the IC50 ([1]; Homo sapiens, NCI-H358, 72 h)?
The IC50 was 22.2 nM.

What does the source list for `COc1ncc(-c2ccc3ncnc(NC4CCN(C(=O)/C=C/C(C)=O)CC4)c3c2)cc1NS(=O)(=O)c1ccc(F)cc1F` [Example 130, (E)-2,4-difluoro-N-(2-methoxy-5-(4-((1-(4-oxopent-2-enoyl)piperidin-4-yl)amino)quinazolin-6-yl)pyridin-3-yl)benzenesulfonamide]?
IC50 (PI3Kα; Table 2): 2.6 nM; IC50 (PI3Kδ): 15.2 nM; IC50 ([1]; Homo sapiens, NCI-H358, 72 h): 442 nM

How did the IC50 [2] turn out when `COc1ncc(-c2ccc3ncnc(N4CCN(C(=O)/C=C/C(C)=O)CC4)c3n2)cc1NS(=O)(=O)c1ccc(F)cc1` [Example 134, (E)-4-fluoro-N-(2-methoxy-5-(4-(4-(4-oxopent-2-enoyl)piperazin-1-yl)pyrido[3,2-d]pyrimidin-6-yl)pyridin-3-yl)benzenesulfonamide] was run?
Its IC50 is 19.6 nM.

How did the IC50 [2] turn out when `COc1ncc(-c2ccc3ncnc(N4CCN(C(=O)/C=C/C(C)=O)CC4)c3n2)cc1NS(=O)(=O)c1ccc(F)cc1Cl` [Example 135, (E)-2-chloro-4-fluoro-N-(2-methoxy-5-(4-(4-(4-oxopent-2-enoyl)piperazin-1-yl)pyrido[3,2-d]pyrimidin-6-yl)pyridin-3-yl)benzenesulfonamide] was run?
Its IC50 is 9.1 nM.

Which IC50 [2] does the source give for `COc1ncc(-c2ccc3ncnc(N4CCC5(CC4)CN(C(=O)/C=C/C(C)=O)C5)c3n2)cc1NS(=O)(=O)c1c(F)cccc1F` [Example 136, (E)-2,6-difluoro-N-(2-methoxy-5-(4-(2-(4-oxopent-2-enoyl)-2,7-diazaspiro[3.5]nonan-7-yl)pyrido[3,2-d]pyrimidin-6-yl)pyridin-3-yl)benzenesulfonamide] here?
The IC50 was 6.6 nM.

Which IC50 [2] does the source give for `COc1ncc(-c2ccc3ncnc(N4CC5CCC(C4)N5C(=O)/C=C/C(C)=O)c3n2)cc1NS(=O)(=O)c1c(F)cccc1F` [Example 137, 2,6-difluoro-N-(2-methoxy-5-(4-(8-((E)-4-oxopent-2-enoyl)-3,8-diazabicyclo[3.2.1]octan-3-yl)pyrido[3,2-d]pyrimidin-6-yl)pyridin-3-yl)benzenesulfonamide] here?
Its IC50 is 6.8 nM.

Which IC50 [2] does the source give for `COc1ncc(-c2ccc3ncnc(N4CCN(C(=O)/C=C/C(C)=O)C[C@@H]4C)c3n2)cc1NS(=O)(=O)c1c(F)cccc1F` [Example 138, (S,E)-2,6-difluoro-N-(2-methoxy-5-(4-(2-methyl-4-(4-oxopent-2-enoyl)piperazin-1-yl)pyrido[3,2-d]pyrimidin-6-yl)pyridin-3-yl)benzenesulfonamide] here?
Its IC50 is 10.5 nM.

How did the IC50 (PI3Kα; Table 4) turn out when `COc1ncc(-c2ccc3ncnc(N4CCN(C(=O)/C(C#N)=C/C(C)(C)C)CC4)c3c2)cc1NS(=O)(=O)c1ccc(F)cc1F` [Example 180, (E)-N-(5-(4-(4-(2-cyano-4,4-dimethyl-pent-2-enoyl)piperazin-1-yl)quinazolin-6-yl)-2-methoxy-pyridin-3-yl)-2,4-difluoro-benzene-sulfonamide] was run?
The IC50 was 1.8 nM.

And the IC50 ([1]; Homo sapiens, NCI-H358, 72 h)?
The IC50 was 114 nM.

And the IC50 [2]?
The IC50 was 45.2 nM.

`C=CS(=O)(=O)N1CCN(c2ncnc3ccc(-c4cnc(OC)c(NS(=O)(=O)c5ccc(F)cc5F)c4)cc23)CC1` [Example 207, 2,4-difluoro-N-(2-methoxy-5-(4-(4-(vinylsulfonyl)piperazin-1-yl)quinazolin-6-yl)pyridin-3-yl)benzenesulfonamide] was tested. Which IC50 ([1]; Homo sapiens, NCI-H358, 72 h) did it give?
Its IC50 is 40 nM.

What about the IC50 [2] of the same compound?
The IC50 was 73.3 nM.
